# Test results published in patent publication US9775832B2, “Pharmaceutical composition for oral administration” (ASTELLAS PHARMA INC., priority 2014, dated 2017).
# Assays:
# [1] = Measurement of solubility (Experimental Example 3); format: physicochemical; conditions: Phosphate buffer, room temperature, shaken 120 minutes
# Description: The improved solubility of compound A by amorphization was observed.
# physchem = conditions: thermodynamic from solid
# [2] = Measurement of related substances by HPLC after storage in glass bottles (Experimental Example 4); format: physicochemical
# Description: The solid dispersion of Example 1 and the amorphous form of compound A of Example 2 were put into glass bottles, and the bottles were allowed to stand under the predetermined conditions, after being sealed or without being sealed, and the amount of each related substance of compound A was measured by an HPLC method.
# The measurement of related substances was carried out in accordance with the following conditions (the following tests for related substances were carried out in a similar fashion.): • As a HPLC column, Unison UK-Phenyl (particle size=3 μm, 4.6 mm (inner diameter)×25 cm, manufactured by Imtakt), or its equivalent, was used, and maintained at 40° C. • As mobile phase A, a mixed solution (4:1) of a perchlorate solution (pH 4.0) and methanol was used. • As mobile phase B, acetonitrile was used. • Sample solutions were prepared by diluting samples with a mixed solution of mobile phase A/mobile phase B (7:3) so that the concentration of compound A became 250 μg/mL. • Related substances were measured using an ultraviolet absorption spectrophotometer (wavelength: 225 nm), in accordance with the gradient program shown in Table 3 below, and at a flow rate in which the retention time of compound A was about 26 minutes. The percentage of the peak area of each related substance was calculated, as a percentage with respect to the total peak area of compound A and its related substances.
# [3] = Powder X-ray diffraction test, crystallinity before and after storage (Experimental Example 5); format: physicochemical; conditions: at least 70° C. for 9 days, or 40° C., 75% RH for 1 month; FIG. 2
# Description: The amorphous form of compound A of Example 2 was put into glass bottles, and the bottles were sealed and allowed to stand under the predetermined conditions, and the crystallinity before and after storage was evaluated using a powder X-ray diffraction method. In “40° C., 75% RH for 1 month (opened)”, the storage was carried out under the conditions where the bottle was not sealed.
# [4] = Oral absorption test in dog (Experimental Example 6); format: in vivo; conditions: 50 mg of compound A
# Description: The dogs were made to fast from the evening on the day before the administration (before more than 16 hours from the scheduled administration time) to the final blood collection on the day of the administration (24 hours after the administration). After the end of the final blood collection, food was given in accordance with the feeding amount of the breeding facility (the fasting period was from 24 hours or more to less than 48 hours). Water was not given during a time period from 30 minutes before the administration to 2 hours after the administration, and then, it was free to drink water.
# [5] = glass bottle not sealed (*), 40° C., 75% RH for 1 month
# [6] = glass bottle, sealed, 25° C., 60% RH for 1 month
# [7] = glass bottle, sealed, 40° C., 75% RH for 1 month
# [8] = glass bottle, sealed, 70° C. for 9 days
smiles,measurement,setting,value
"C[C@@H](O)C(=N)NS(=O)(=O)c1cc(C(=O)C(C(=O)c2cc(F)ccc2F)=C2Nc3ccccc3N2)ccc1F [Compound A, (2R)—N-({5-[3-(2,5-difluorophenyl)-2-(1,3-dihydro-2H-benzimidazole-2-ylidene)-3-oxopropanoyl]-2-fluorophenyl}sulfonyl)-2-hydroxypropane imide amide]",Solubility,"[1]; pH 6.8, 0.10% Sodium lauryl sulfate, listed as Compound A in crystalline state",69 µg/mL
same,Solubility,"[1]; pH 6.8, listed as Compound A in crystalline state",15 µg/mL
same,Solubility,"physchem; pH 1.2, simulated gastric fluid",~9.9 µg/mL
same,Solubility,"physchem; pH 6.8, aqueous buffer",~9.8 µg/mL
"C[C@@H](O)C(=N)NS(=O)(=O)c1cc(C(=O)C(C(=O)c2cc(F)ccc2F)=C2Nc3ccccc3N2)ccc1F [Example 2, (2R)—N-({5-[3-(2,5-difluorophenyl)-2-(1,3-dihydro-2H-benzimidazole-2-ylidene)-3-oxopropanoyl]-2-fluorophenyl}sulfonyl)-2-hydroxypropane imide amide]",Solubility,"[1]; pH 6.8, 0.10% Sodium lauryl sulfate, listed as Ex. 2",326 µg/mL
same,Solubility,"[1]; pH 6.8, listed as Ex. 2",75 µg/mL
same,Maximum related substance,[2]; At the beginning of storage,0.80%
same,Total amount of related substances,[2]; At the beginning of storage,0.88%
same,significant increase in related substances,"[2]; at least 70° C. for 9 days, 40° C., 75% RH for 1 month, or 25° C., 60% RH for 1 month",not observed
same,Maximum related substance,[2]; [5],0.77%
same,"Maximum related substance, increased amount from the beginning of the storage",[2]; [5],(−0.03) %
same,Total amount of related substances,[2]; [5],0.98%
same,"Total amount of related substances, increased amount from the beginning of the storage",[2]; [5],(0.10) %
same,Maximum related substance,[2]; [6],0.79%
same,"Maximum related substance, increased amount from the beginning of the storage",[2]; [6],(−0.01) %
same,Total amount of related substances,[2]; [6],0.99%
same,"Total amount of related substances, increased amount from the beginning of the storage",[2]; [6],(0.11) %
same,Maximum related substance,[2]; [7],0.79%
same,"Maximum related substance, increased amount from the beginning of the storage",[2]; [7],(−0.01) %
same,Total amount of related substances,[2]; [7],0.99%
same,"Total amount of related substances, increased amount from the beginning of the storage",[2]; [7],(0.11) %
same,Maximum related substance,[2]; [8],0.82%
same,"Maximum related substance, increased amount from the beginning of the storage",[2]; [8],(0.02) %
same,Total amount of related substances,[2]; [8],0.85%
same,"Total amount of related substances, increased amount from the beginning of the storage",[2]; [8],(−0.03) %
same,crystallinity after storage (powder X-ray diffraction),[3],maintained the amorphous state alone
same,AUC0-24 h ratio to the suspension of Example 2,[4],1.00
same,Cmax ratio to the suspension of Example 2,[4],1.00
same,oral absorbability,[4],good oral absorbability
same,Cmax,"[4]; plasma, suspension in 0.5% methylcellulose",793 ± 165 ng/mL
same,AUC(0-t),"[4]; plasma, suspension in 0.5% methylcellulose, read-out: AUC0-24 hr",4920 ± 1220 ng·h/mL
